Where two headings read alike, the source gives them in different places.
How the values were obtained:
Assay in all cases: NADH oxidation at […] nm, muscle homogenate supernatant
[1] = tested on: T1, LDH (muscle lactate dehydrogenase); type: biochemical, Ucides cordatus; conditions: 150 uM NADH, 80 mM imidazole-HCl pH 6.9, 26 °C (FRT); read-out: Km^Pyr / (mM) / FRT
T1 construct: native, not purified; supernatant of abdominal muscle homogenate, pooled crabs, Pernambuco, Brazil

[2] = tested on: T2, LDH (muscle lactate dehydrogenase); type: biochemical, Halicarcinus planatus; conditions: 150 uM NADH, 80 mM imidazole-HCl pH 6.9, 9 °C (FRT); read-out: Km^Pyr / (mM) / FRT
T2 construct: native, not purified; supernatant of abdominal muscle homogenate, pooled crabs, Ushuaia, Argentina

[3] = tested on: T1, LDH (muscle lactate dehydrogenase); type: biochemical, Cardisoma guanhumi; conditions: 150 uM NADH, 80 mM imidazole-HCl pH 6.9, 26 °C (FRT); read-out: Km^Pyr / (mM) / FRT
[4] = tested on: T3, LDH (muscle lactate dehydrogenase); type: biochemical, Armases rubripes; conditions: 150 uM NADH, 80 mM imidazole-HCl pH 6.9, 15 °C (FRT); read-out: Km^Pyr / (mM) / FRT
T3 construct: native, not purified; supernatant of abdominal muscle homogenate, pooled crabs, Rio Grande, Brazil

[5] = tested on: T1, LDH (muscle lactate dehydrogenase); type: biochemical, Pachygrapsus transversus; conditions: 150 uM NADH, 80 mM imidazole-HCl pH 6.9, 26 °C (FRT); read-out: Km^Pyr / (mM) / FRT
[6] = tested on: T3, LDH (muscle lactate dehydrogenase); type: biochemical, Neohelice granulata; conditions: 150 uM NADH, 80 mM imidazole-HCl pH 6.9, 15 °C (FRT); read-out: Km^Pyr / (mM) / FRT
[7] = tested on: T1, LDH (muscle lactate dehydrogenase); type: biochemical, Ocypode quadrata; conditions: 150 uM NADH, 80 mM imidazole-HCl pH 6.9, 26 °C (FRT); read-out: Km^Pyr / (mM) / FRT
[8] = tested on: T3, LDH (muscle lactate dehydrogenase); type: biochemical, Leptuca uruguayensis; conditions: 150 uM NADH, 80 mM imidazole-HCl pH 6.9, 15 °C (FRT); read-out: Km^Pyr / (mM) / FRT
[9] = tested on: T1, LDH (muscle lactate dehydrogenase); type: biochemical, Goniopsis cruentata; conditions: 150 uM NADH, 80 mM imidazole-HCl pH 6.9, 26 °C (FRT); read-out: Km^Pyr / (mM) / FRT
[10] = tested on: T1, LDH (muscle lactate dehydrogenase); type: biochemical, Uca maracoani; conditions: 150 uM NADH, 80 mM imidazole-HCl pH 6.9, 26 °C (FRT); read-out: Km^Pyr / (mM) / FRT
[11] = tested on: T2, LDH (muscle lactate dehydrogenase); type: biochemical, Acanthocyclus albatrossis; conditions: 150 uM NADH, 80 mM imidazole-HCl pH 6.9, 9 °C (FRT); read-out: Km^Pyr / (mM) / FRT
[12] = tested on: T1, LDH (muscle lactate dehydrogenase); type: biochemical, Aratus pisonii; conditions: 150 uM NADH, 80 mM imidazole-HCl pH 6.9, 26 °C (FRT); read-out: Km^Pyr / (mM) / FRT

- Km [2]: 0.5 mM
- Km [3]: 0.17 ± 0.01 mM
- Km [4]: 0.15 ± 0.01 mM
- Km [5]: 0.2 ± 0.01 mM
- Km [6]: 0.32 ± 0.03 mM
- Km [7]: 0.15 ± 0.02 mM
- Km [8]: 0.16 mM
- Km [9]: 0.1 mM
- Km [10]: 0.49 ± 0.05 mM
- Km [11]: 0.3 mM
- Km [12]: 0.11 mM
Compound: CC(=O)C(=O)O [pyruvate]
- Km [1]: 0.17 ± 0.01 mM

Reference: article PMC7194293, “Living on the Edge: Physiological and Kinetic Trade-Offs Shape Thermal Tolerance in Intertidal Crabs From Tropical to Sub-Antarctic South America” (Frontiers in Physiology, 2020)
